Consider one molecule from US20240237526A1, “ORGANIC COMPOUND, LIGHT-EMITTING DEVICE, LIGHT-EMITTING APPARATUS, AND ELECTRONIC DEVICE” (SEMICONDUCTOR ENERGY LABORATORY CO., LTD., priority 2022, published 2024).

This data set can be described thus: solubility test in water by visual inspection. The class given is physicochemical. The conditions noted are these: room temperature (RT), one atmosphere, ultrasonic irradiation. The procedure:
In this example, the solubility of the organic compound that can be used in the display apparatus of one embodiment of the present invention is described. Note that the solubility test was conducted at a pressure of one atmosphere at room temperature (RT).
Into a 110 mL sample bottle, 1.22 mg of 2tiiSF was put and 10 mL of water was added thereto. This mixture was irradiated with ultrasonic waves for one minute. A precipitated white powder was found by visual inspection for an insoluble residue. After further addition of 10 mL of water and one-minute ultrasonic wave irradiation, a precipitated white powder was found by visual inspection. This procedure was repeated until the dissolution was confirmed by visual inspection.
The precipitated white powder was found until the total amount of water reached 100 mL.
Into a 110 mL sample bottle, 1.08 mg of 2hppSF was put and 10 mL of water was added thereto. This mixture was irradiated with ultrasonic waves for one minute. A precipitated white powder was found by visual inspection for an insoluble residue. After further addition of 10 mL of water and one-minute ultrasonic wave irradiation, a precipitated white powder was found by visual inspection. This procedure was repeated until the dissolution was confirmed by visual inspection.
The precipitated white powder was found until the total amount of water reached 50 mL. […]

Take `c1ccc2c(c1)-c1ccccc1C21c2ccccc2-c2ccc(N3CCN4CCN=C43)cc21` [2tiiSF, 1-(9,9′-spirobi[9H-fluoren]-2-yl)-2,3,5,6-tetrahydro-1H-imidazo[1,2-a]imidazole]: the “weight which can be dissolved in 1.0 mL of water” value is on record as “less than 0.012 mg”.
